Assay [1] deals with purified recombinant human GAC (GLS1) (Homo sapiens (Human), UniProt O94925). The assay can be described thus: GLS1 Enzymatic Activity Assay (dual-coupled enzymatic assay, resorufin/Amplex UltraRed readout).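 Note: glutamate from GAC coupled via glutamate oxidase and peroxidase to resorufin, read as fluorescence (ex 530, em 590 nm) kinetically or at 20 min, four-parameter logistic IC50 fit.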 Type of assay: biochemical.
In assay [2] the test system is A549 cells. In words: Proliferation Assay (A549 viability, Cell Titer Fluor, 72 hours). The format is cell-based. The following applies: Homo sapiens, A549, 72 h. In short, it runs like this:
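Cell Titer Fluor fluorescence after 72 h compound treatment (0.5% DMSO, 37 °C, 5% CO2) of A549 cells plated 24 h earlier at 1000/well. Four-parameter logistic fitting gave IC50.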

Chain of purified recombinant human GAC (GLS1) (O94925 other isoform, or with tags, fused parts or gaps): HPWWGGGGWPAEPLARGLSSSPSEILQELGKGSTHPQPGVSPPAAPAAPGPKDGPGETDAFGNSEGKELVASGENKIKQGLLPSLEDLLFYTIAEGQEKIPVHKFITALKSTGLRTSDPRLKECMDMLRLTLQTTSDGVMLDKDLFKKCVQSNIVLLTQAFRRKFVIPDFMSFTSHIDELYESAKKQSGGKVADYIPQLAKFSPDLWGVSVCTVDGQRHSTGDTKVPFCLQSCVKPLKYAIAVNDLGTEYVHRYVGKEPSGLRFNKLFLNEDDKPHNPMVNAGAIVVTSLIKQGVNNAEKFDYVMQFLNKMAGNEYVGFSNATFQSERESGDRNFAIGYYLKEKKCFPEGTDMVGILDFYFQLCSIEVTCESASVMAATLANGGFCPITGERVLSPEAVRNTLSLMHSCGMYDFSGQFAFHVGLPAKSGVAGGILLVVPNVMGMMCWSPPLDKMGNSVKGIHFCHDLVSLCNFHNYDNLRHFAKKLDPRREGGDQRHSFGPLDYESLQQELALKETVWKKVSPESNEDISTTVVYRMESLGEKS

By IC50 is commonly meant the midpoint of a concentration-inhibition curve. A word on the EC50: it is the concentration that produces a half-maximal response. Read a high EC50 as weaker potency. For `O=C(Cc1cc(OC(F)(F)F)ccc1F)Nc1ccc(CCCCn2cc(C(=O)NCC3CCO3)nn2)nn1` (stereo not drawn) [Example 582, 1-(4-(6-(2-(2-fluoro-5-(trifluoromethoxy)phenyl)acetamido)pyridazin-3-yl)butyl)-N-(oxetan-2-ylmethyl)-1H-1,2,3-triazole-4-carboxamide], the concentration for half-maximal inhibition (IC50) in assay [1] was < 100 nM. In assay [2], this compound showed a half-maximal effective concentration (EC50) of 100 to 500 nM.
For the compound `O=C(Cc1cc(OC(F)(F)F)ccc1F)Nc1ccc(CCCCn2cc(C(=O)NC3CC3)nn2)nn1` [Example 583, N-cyclopropyl-1-(4-(6-(2-(2-fluoro-5-(trifluoromethoxy)phenyl)acetamido)pyridazin-3-yl)butyl)-1H-1,2,3-triazole-4-carboxamide], the half-maximal inhibitory concentration (IC50) in assay [1] was < 100 nM. In addition, the half-maximal effective concentration (EC50) in assay [2] is < 100 nM.
On to `COCCNC(=O)c1cn(CCCCc2ccc(NC(=O)Cc3cc(OC(F)(F)F)ccc3F)nn2)nn1` [Example 584, 1-(4-(6-(2-(2-fluoro-5-(trifluoromethoxy)phenyl)acetamido)pyridazin-3-yl)butyl)-N-(2-methoxyethyl)-1H-1,2,3-triazole-4-carboxamide], for which, in assay [1], the IC50 was < 100 nM. Further, the EC50 in assay [2] lay in the range of 100 to 500 nM.
As to `O=C(Cc1cc(OC(F)(F)F)ccc1F)Nc1ccc(CCCCn2cc(C(=O)NCc3ccccn3)nn2)nn1` [Example 585, 1-(4-(6-(2-(2-fluoro-5-(trifluoromethoxy)phenyl)acetamido)pyridazin-3-yl)butyl)-N-(pyridin-2-ylmethyl)-1H-1,2,3-triazole-4-carboxamide], the IC50 in assay [1] is < 100 nM. The 50% effective concentration (EC50) in assay [2] is < 100 nM.
For the compound `O=C(Cc1cc(OC(F)(F)F)ccc1F)Nc1ccc(CCCCn2cc(C(=O)NCc3cccnc3)nn2)nn1` [Example 586, 1-(4-(6-(2-(2-fluoro-5-(trifluoromethoxy)phenyl)acetamido)pyridazin-3-yl)butyl)-N-(pyridin-3-ylmethyl)-1H-1,2,3-triazole-4-carboxamide], in assay [1], the 50% inhibitory concentration (IC50) is < 100 nM. In addition, the EC50 in assay [2] was < 100 nM.
As for `O=C(Cc1cc(OC(F)(F)F)ccc1F)Nc1ccc(CCCCn2cc(C(=O)NCc3ccncc3)nn2)nn1` [Example 587, 1-(4-(6-(2-(2-fluoro-5-(trifluoromethoxy)phenyl)acetamido)pyridazin-3-yl)butyl)-N-(pyridin-4-ylmethyl)-1H-1,2,3-triazole-4-carboxamide], the IC50 in assay [1] was < 100 nM. Also, in assay [2], the 50% effective concentration (EC50) is < 100 nM.
Turning to `O=C(Cc1ccccn1)Nc1ccc(CCCCn2cc(C(=O)NCc3cc(OC(F)(F)F)ccc3F)nn2)nn1` [Example 588, N-(2-fluoro-5-(trifluoromethoxy)benzyl)-1-(4-(6-(2-(pyridin-2-yl)acetamido)pyridazin-3-yl)butyl)-1H-1,2,3-triazole-4-carboxamide], the 50% inhibitory concentration (IC50) in assay [1] was < 100 nM. In addition, in assay [2], the EC50 is < 100 nM.
As for `O=C(Cc1cccnc1)Nc1ccc(CCCCn2cc(C(=O)NCc3cc(OC(F)(F)F)ccc3F)nn2)nn1` [Example 589, N-(2-fluoro-5-(trifluoromethoxy)benzyl)-1-(4-(6-(2-(pyridin-3-yl)acetamido)pyridazin-3-yl)butyl)-1H-1,2,3-triazole-4-carboxamide], the half-inhibitory concentration (IC50) in assay [1] is < 100 nM. The EC50 in assay [2] is < 100 nM.
`O=C(Cc1ccncc1)Nc1ccc(CCCCn2cc(C(=O)NCc3cc(OC(F)(F)F)ccc3F)nn2)nn1` [Example 590, N-(2-fluoro-5-(trifluoromethoxy)benzyl)-1-(4-(6-(2-(pyridin-4-yl)acetamido)pyridazin-3-yl)butyl)-1H-1,2,3-triazole-4-carboxamide]: the half-maximal inhibitory concentration (IC50) in assay [1] is < 100 nM. In addition, the EC50 in assay [2] is < 100 nM.
For the compound `O=C(NCc1cc(OC(F)(F)F)ccc1F)c1cn(CCCCc2ccc(NC(=O)C3CC3)nn2)nn1` [Example 591], in assay [1], the half-maximal inhibitory concentration (IC50) is < 100 nM. This compound also yielded a half-maximal effective concentration (EC50) in assay [2] of 100 to 500 nM.
For `O=C(Cc1cccc(F)n1)Nc1nnc(CCC(F)Cn2cc(C(=O)NCc3cc(OC(F)(F)F)ccc3F)nn2)s1` (stereo not drawn) [Example 592, 1-(2-fluoro-4-(5-(2-(6-fluoropyridin-2-yl)acetamido)-1,3,4-thiadiazol-2-yl)butyl)-N-(2-fluoro-5-(trifluoromethoxy)benzyl)-1H-1,2,3-triazole-4-carboxamide], in that order: < 100 nM and < 100 nM.
As to `O=C(Cc1cncs1)Nc1nnc(CCC(F)Cn2cc(C(=O)NCc3cc(OC(F)(F)F)ccc3F)nn2)s1` (stereo not drawn) [Example 593, 1-(2-fluoro-4-(5-(2-(thiazol-5-yl)acetamido)-1,3,4-thiadiazol-2-yl)butyl)-N-(2-fluoro-5-(trifluoromethoxy)benzyl)-1H-1,2,3-triazole-4-carboxamide], the IC50 in assay [1] is < 100 nM. For the same compound, the EC50 in assay [2] is < 100 nM.
On to `O=C(Nc1nnc(CCC(F)Cn2cc(C(=O)NCc3cc(OC(F)(F)F)ccc3F)nn2)s1)c1ccncc1` (stereo not drawn) [Example 594, N-(5-(3-fluoro-4-(4-((2-fluoro-5-(trifluoromethoxy)benzyl)carbamoyl)-1H-1,2,3-triazol-1-yl)butyl)-1,3,4-thiadiazol-2-yl)isonicotinamide], for which the half-maximal inhibitory concentration (IC50) in assay [1] was < 100 nM. Also, the EC50 in assay [2] fell in the range of 500 to 5000 nM.
The corresponding values for `O=C(NCc1cc(OC(F)(F)F)ccc1F)c1cn(CC(F)CCc2nnc(NC(=O)c3ccccn3)s2)nn1` (stereo not drawn) [Example 595, N-(5-(3-fluoro-4-(4-((2-fluoro-5-(trifluoromethoxy)benzyl)carbamoyl)-1H-1,2,3-triazol-1-yl)butyl)-1,3,4-thiadiazol-2-yl)picolinamide] are < 100 nM and < 100 nM.
For `NC(=O)c1cn(CCCCc2ccc(NC(=O)Cc3cccc(OC(F)(F)F)c3)nn2)nn1` [Example 596, 1-(4-(6-(2-(3-(trifluoromethoxy)phenyl)acetamido)pyridazin-3-yl)butyl)-1H-1,2,3-triazole-4-carboxamide], in that order: < 100 nM and 100 to 500 nM.
For `O=C(Cc1cc(OC(F)(F)F)ccc1F)Nc1ccc(CCCCc2nnc(C(=O)NCCO)s2)nn1` [Example 597, 5-(4-(6-(2-(2-fluoro-5-(trifluoromethoxy)phenyl)acetamido)pyridazin-3-yl)butyl)-N-(2-hydroxyethyl)-1,3,4-thiadiazole-2-carboxamide], in that order: < 100 nM and 100 to 500 nM.
Turning to `CNC(=O)c1nnc(CCCCc2ccc(NC(=O)Cc3cc(OC(F)(F)F)ccc3F)nn2)s1` [Example 598, 5-(4-(6-(2-(2-fluoro-5-(trifluoromethoxy)phenyl)acetamido)pyridazin-3-yl)butyl)-N-methyl-1,3,4-thiadiazole-2-carboxamide], the IC50 in assay [1] was < 100 nM. Further, in assay [2], the EC50 was < 100 nM.
`CC(=O)Nc1ccc(CCCCc2nnc(C(=O)NCc3cccc(OC(F)(F)F)c3)s2)nn1` [Example 599, 5-(4-(6-acetamidopyridazin-3-yl)butyl)-N-(3-(trifluoromethoxy)benzyl)-1,3,4-thiadiazole-2-carboxamide]: the IC50 in assay [1] was < 100 nM. For the same compound, in assay [2], the EC50 was < 100 nM.
For `CC(=O)Nc1ccc(CCCCc2nnc(C(=O)NCc3cc(OC(F)(F)F)ccc3F)s2)nn1` [Example 600, 5-(4-(6-acetamidopyridazin-3-yl)butyl)-N-(2-fluoro-5-(trifluoromethoxy)benzyl)-1,3,4-thiadiazole-2-carboxamide], the IC50 in assay [1] is < 100 nM. In addition, the 50% effective concentration (EC50) in assay [2] is < 100 nM.
Turning to `CC(=O)Nc1ccc(CCCCc2nnc(C(=O)NCc3cc(C(F)(F)F)ccn3)s2)nn1` [Example 601, 5-(4-(6-acetamidopyridazin-3-yl)butyl)-N-((4-(trifluoromethyl)pyridin-2-yl)methyl)-1,3,4-thiadiazole-2-carboxamide], the IC50 in assay [1] was < 100 nM. In addition, the concentration for a half-maximal effect (EC50) in assay [2] is < 100 nM.
As to `CC(=O)Nc1ccc(CCCCc2nnc(C(=O)NCc3cncc(C(F)(F)F)c3)s2)nn1` [Example 602, 5-(4-(6-acetamidopyridazin-3-yl)butyl)-N-((5-(trifluoromethyl)pyridin-3-yl)methyl)-1,3,4-thiadiazole-2-carboxamide], the IC50 in assay [1] was < 100 nM. The EC50 in assay [2] was < 100 nM.
For the compound `CNC(=O)c1nnc(CCCCn2cc(C(=O)NCc3cc(C(F)(F)F)ccn3)nn2)s1` [Example 603, N-methyl-5-(4-(4-(((4-(trifluoromethyl)pyridin-2-yl)methyl)carbamoyl)-1H-1,2,3-triazol-1-yl)butyl)-1,3,4-thiadiazole-2-carboxamide], the half-inhibitory concentration (IC50) in assay [1] fell in the range of 500 to 5000 nM. The EC50 in assay [2] is > 5000 nM.
With `CNC(=O)c1cn(CCCCc2ccc(NC(=O)Cc3cn(-c4cccc(OC(F)(F)F)c4)cn3)nn2)nn1` [Example 604, N-methyl-1-(4-(6-(2-(1-(3-(trifluoromethoxy)phenyl)-1H-imidazol-4-yl)acetamido)pyridazin-3-yl)butyl)-1H-1,2,3-triazole-4-carboxamide], the IC50 in assay [1] is < 100 nM. In assay [2], the EC50 is < 100 nM.
Consider `CNC(=O)c1cn(CCCCc2ccc(NC(=O)Cc3cc(-c4ccccc4C(F)(F)F)ccn3)nn2)nn1` [Example 605, N-methyl-1-(4-(6-(2-(4-(2-(trifluoromethyl)phenyl)pyridin-2-yl)acetamido)pyridazin-3-yl)butyl)-1H-1,2,3-triazole-4-carboxamide], for which the half-maximal inhibitory concentration (IC50) in assay [1] was < 100 nM. For the same compound, in assay [2], the EC50 was < 100 nM.
